# Laboratory results: patent publication US11091515B2, “Polypeptide derived from CAP1 and pharmaceutical composition comprising same as effective ingredient” (Seoul National University Hospital, priority 2017, dated 2021)
# Where no end group is shown, it is not given here.
# How the values were obtained:
# [1] = target: T1, binding of resistin and CAP1 (Homo sapiens, UniProt Q9HD89); assay: In vitro pull down assay of mFc-hResistin with CAP1 from THP-1 cell lysates (western blot with CAP1 antibody); details: for inhibition of binding of resistin and CAP1: each peptide at 50 μM, mFC-hResistin 1 μg/ml
# T1 construct: host or cells: CAP1: endogenous, THP-1 cell lysate
# T1 sequence (Q9HD89 19-108): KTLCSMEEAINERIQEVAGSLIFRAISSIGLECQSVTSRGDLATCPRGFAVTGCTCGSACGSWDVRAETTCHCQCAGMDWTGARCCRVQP
# Description: THP-1 cells were lysed with lysis buffer (20 mM Tris pH 7.5, 150 mM NaCl, 1% Triton X-100, 0.25% sodium deoxycholate, 1 mM EDTA, 1 Mm NaF, 1 mM Na3VO4, and, protease inhibitor cocktail) to extract proteins. mFc-hResistin (0.5 ug) protein and VS_peptide (SEQ ID NO: 2) at 10 μM, 100 μM, and 500 μM were added to the extracted THP-1 protein (500 μg), followed by incubation at 4° C. overnight. mFC beads (20 μl) were added, and the protein complexes were pulled down at 4° C. for 3 hours, and then washed three times with lysis buffer. Then, SDS-PAGE sample buffer containing β-mercaptoethanol was added, followed by boiling at 100° C. for 5 minutes, and then a supernatant was obtained through centrifugation. It was investigated by western blotting using the hCAP1 antibody and mFc-HRP antibody whether the binding of hCAP1 and mFc-hResistin was inhibited by VS_peptide. Specifically, THP-1 cell lysates were treated with 1 μg/ml of mFC-hResistin, treated with VS_peptide (SEQ ID NO: 2) at 10 μM, 100 μM, and 500 μM each, and then pulled down using Fc beads. The proteins bound to beads were separated by SDS-PAGE, and subjected to western blotting using the CAP1 antibody. THP-1 cell lysates were treated with mFC-hResistin (1 μg/ml) and each of the peptides of SEQ ID NOS: 1 to 7 at 50 μM each, and pulled down using Fc beads. Thereafter, the proteins bound to Fc beads were separated by SDS-PAGE, and then subjected to western blotting using the CAP1 antibody.
# [2] = test system: NF-κB (p65 phosphorylation); assay: NF-κB activity by p65 phosphorylation western blot in resistin-treated THP-1 cells; assay type: cell-based, human
# Description: To investigate the effect of VS_peptide (SEQ ID NO: 2) on NF-κB activity, p65 phosphorylation was compared between the addition of VS_peptide (SEQ ID NO: 2) and the addition of AA_peptide (SEQ ID NO: 3). THP-1 cells were treated with resistin to activate NF-κB, and VS_peptide (SEQ ID NO: 2) and AA_peptide (SEQ ID NO: 3) were added, and then western blotting using the p-p65 antibody was performed for NF-κB activity.
# [3] = test system: AMPK (phosphorylation of AMPK and ACC, LDLR expression); assay: AMPK activity by western blot in HepG2 cells treated with AICAR and resistin; assay type: cell-based; details: peptide 50 μM, compared with addition of only resistin
# Description: To investigate the effect of VS_peptide (SEQ ID NO: 2) on AMPK activity, AMPK phosphorylation was compared between the addition of VS_peptide (SEQ ID NO: 2) and the addition of AA_peptide (SEQ ID NO: 3). To investigate the effect of VS_peptide (SEQ ID NO: 2) on AMPK activity, HepG2 cells were treated with AICAR to activate AMPK and treated with resistin, and the cells were treated with VS_peptide (SEQ ID NO: 2) and AA_peptide (SEQ ID NO: 3) at 50 μM each. The western blotting was performed to investigate AMPK activity in HepG2 cells through the phosphorylation of AMPK, the phosphorylation of ACC, which is a substrate of AMPK, and the expression level of LDLR.
# [4] = Peptide pharmacokinetics by PET imaging of radioisotope-labeled peptide; assay type: in vivo, mice; details: tail vein injection, PET images at 0-48 hours
# Description: VS_peptide and albumin-conjugated VS_peptide were injected at 36-40 μCi per mouse into the tail vein of C57BL/6 normal mice. After the injection, PET images were acquired at intervals of 0, 1, 2, 4, 24, and 48 hours using the GENISYS[…] machine from Sofie Bioscience. After the image acquisition, pharmacokinetic data were obtained by monoexponential fitting using the image analysis program Amide.
# To increase drug delivery efficiency and drug effect duration of VS_peptide (SEQ ID NO: 2), albumin was bound to the peptide. VS_peptide (SEQ ID NO: 2) and albumin-conjugated VS_peptide (SEQ ID NO: 2) were labeled with a radioisotope, and then injected at 36-40 uCi each into the tail vein of male mice aged 8 weeks. PET images were acquired at intervals of 0, 1, 2, 4, 24, and 48 hours, and kinetics of the peptide in the body were observed.
# [5] = target: T2, binding of resistin and CAP1 (rhCAP1, mFc-hResistin) (Homo sapiens, UniProt Q9HD89); assay: Competitive ELISA, mFc-hResistin binding to plate-coated rhCAP1
# T2 sequence (Q9HD89 19-108): T1 sequence (Q9HD89 19-108)
# Description: Each well of a 96-well plate were coated with hCAP1 protein at a concentration of 2.5 μg/ml for 12 hours (overnight) at room temperature. Each well was washed two times with phosphate buffered saline (PBS, pH7.4). Each well was blocked with a blocking buffer containing 3% BAS at room temperature for 1 hour. The blocking buffer containing 3% BSA was mixed with 5 ug/ml mFc-hResistin protein and VS_peptide [SEQ ID NO: 2] at various concentrations (10 uM, 30 uM, 100 uM), followed by pre-incubation at room temperature for 1 hour. After the blocking solution was removed from the 96-well plate, 100 μl of the pre-incubated mixture of mFc-hResistin protein and VS_peptide (SEQ ID NO: 2) was dispensed in each well, followed by incubation at room temperature for 2 hours. Upon the completion of the incubation, each well was washed two times with PBS. After the anti-mouse-Fc-HRP antibody was diluted in a blocking buffer containing 3% BSA at 1:1000, 100 μl of the diluted antibody was dispensed in each well, followed by incubation at room temperature for 1 hour. Upon the completion of the incubation, each well was washed two times with PBS. […] After 100 μl of a stop solution was dispensed in each well, and the absorbance was measured at 450 nm using an ELISA reader. […] The resistin bound to the HRP-conjugated mFc antibody was measured by ELISA at an absorbance of 450 nm.
# MDA-MB-231 cells = assay: Cell migration analysis of resistin-treated breast cancer cells; assay type: cell-based, human; details: MDA-MB-231, resistin 50 ng/ml, 30 μM and 50 μM, compared with AA_peptide
# Description: MDA-MB-231 cells were suspended in DMEM medium (0.1% FBS), and then the suspension was added at a concentration of 1×10^5 cell/ml per well to uniformly spread throughout the upper chamber of 6-well Transwell. In the lower chamber, each of 50 μM VS_peptide (SEQ ID NO: 2) and AA_peptide (SEQ ID NO: 3) was mixed with DMEM medium (0.1% FBS), and resistin was added at 100 ng/ml. Thereafter, the cells were incubated in an incubator at 37° C. in 5% CO2 for 24 hours. The cells penetrating the Transwell were stained using Crystal violet staining, and then quantified using the Image J program.
# MDA-MB-231 cells were suspended in DMEM medium, and then placed in 24-well plates at a concentration of 1×10^5 cell/ml per well. After 50 ng/ml of resistin was placed in each well, VS_peptide (SEQ ID NO: 2) and AA_peptide (SEQ ID NO: 3) were placed at 30 μM and 50 μM, respectively. Thereafter, the cells were incubated in an incubator at 37° C. and 5% CO2 for 6-15 hours. Thereafter, cell migration after 6 hours and 15 hours was observed using a microscope.
# [6] = target: T3, binding of resistin and CAP1 in THP-1 cells (Homo sapiens, UniProt Q9HD89); assay: Immunoprecipitation of resistin/CAP1 from treated THP-1 cells; assay type: cell-based; details: THP-1 cells treated with resistin and peptide for 12 hours
# T3 construct: endogenous in cells; host or cells: THP-1 cells (CAP1 endogenous)
# T3 sequence (Q9HD89 19-108): T1 sequence (Q9HD89 19-108)
# Description: THP-1 cells were treated with resistin or resistin and a peptide for 12 hours, and then lysed with lysis buffer (20 mM Tris pH 7.5, 150 mM NaCl, 1% Triton X-100, 0.25% sodium deoxycholate, 1 mM EDTA, 1mM NaF, 1mM Na3VO4, and protease inhibitor cocktail). The resistin antibody or CAP1 antibody was added to the cell lysates, followed by immunoprecipitation at 4° C. for 3 hours. Mouse IgG was added for control. Protein A/G agarose beads were added to the THP-1 protein and CAP1 antibody complex, followed by incubation, and then through centrifugation, only beads were left and the supernatant was removed. Thereafter, the proteins bound to beads were separated by SDS-PAGE, and after electrophoresis, the gel was transferred onto the polyvinylidene fluoride (PVDF, Millipore), and then blocked with 5% skim milk at room temperature for 30 minutes. […] After the incubation, the membrane was sufficiently washed at least three times for 10 minutes each, and bands were detected using ECL detection kit (Invitrogen, WP20005), and then analyzed. […]
Sequence,inhibition of binding of resistin and CAP1 [1],p65 phosphorylation induced by resistin [2],expression level of LDLR [3],phosphorylation of ACC [3],phosphorylation of AMPK [3],also measured
AAAAGAAAAAAATSSGSDES (Synthetic AAA peptide) [Proline rich regions and VS replaced with A],allowed the strongest binding of resistin and CAP1,–,–,–,–,–
AAAAGPPPPPVSTSSGSDES (Synthetic pro1A peptide) [Proline rich-1 region replaced with A],inhibited the binding of resistin and CAP1 at similar levels to the VS_peptide,–,–,–,–,–
GPPPPPVSTS (Synthetic pep10 peptide) [Shortened peptide based on VS and proline rich-1],inhibited the binding of resistin and CAP1 at similar levels to the VS_peptide,–,–,–,–,–
PPPPGAAAAAVSTSSGSDES (Synthetic pro2A peptide) [Proline rich-2 region replaced with A],inhibited the binding of resistin and CAP1 at similar levels to the VS_peptide,–,–,–,–,–
"PPPPGPPPPPAATSSGSDES (Synthetic AA peptide) [AA_peptide, VS replaced with AA; used as control peptide, reference compound]",failed to inhibit,not inhibited,similar,not increased,not increased,–
PPPPGPPPPPVSTSSGSDES [VS_peptide],effectively inhibited,inhibited,increased,increased,increased,"time the administered medicine remains in the body [4]: ≤ 4 h; OD value (450 nm) of resistin bound to CAP1 ([5]; addition of peptide vs non-addition, 10, 30, 100 uM, dose-dependent): decreased; inhibition at 100 µM ([5]; peptide at 100 μM, read-out: inhibitory effect on binding of resistin and CAP1): ~25%; amount of cell migration (MDA-MB-231 cells): smaller; binding of resistin and CAP1 in cells (bands in IP/western blot) [6]: no bands; amount of CAP1 binding to resistin ([1]; peptide at 10, 100 and 500 μM, dose-dependent): reduced"
